Reference: US20260193255A1, “7-AZAINDOLE COMPOUNDS, PREPARATION METHOD THEREFOR, AND USE THEREOF” (Fudan University, priority 2022, published 2026)

How the values were obtained:
[1] = tested on: mouse myoblasts (C2C12); test: Atrophy of mouse myoblasts (C2C12) induced by C26 cell supernatant, myotube diameter by HE staining; format: cell-based; settings: 48 hours treatment, C26 supernatant-induced C2C12 myotubes
Description: C2C12 cells were inoculated in 24-well plates. The culture system was high-glucose DMEM medium containing 10% FBS with 1% penicillin-streptomycin. The plates were placed in a 5% CO2, 37° C. environment. When the cell growth density reached 50%-60%, the culture system was replaced with high-glucose DMEM culture medium containing 2% HS with 1% penicillin-streptomycin. Fresh 2% HS differentiation medium was replaced every 48 hours, and the cells were differentiated into mature cells on the 5th or 6th day. Additionally, C26 cells were inoculated in T75 flasks. The culture system was high-glucose DMEM medium containing 10% FBS with 1% penicillin-streptomycin. The flasks were placed in a 5% CO2, 37° C. environment. When subculturing, the cells were subcultured at 6 million cells/flask. After culturing in 20 ml of culture medium for 48 hours, the supernatant was collected and centrifuged at 1000 rpm for 3 mins. The supernatant was collected and centrifuged at 4000 rpm for 10 mins to obtain the C26 supernatant. The C26 supernatant and 2% HS differentiation solution were mixed at a ratio of 1:1 (volume ratio) as the muscle atrophy induction solution. Except for the control group in which 2% HS differentiation solution was added, for the other groups, an equivalent amount of muscular atrophy induction solution was added. One group was used as the model group, and the other groups were used as the treatment and experimental groups.
The diameter of myotubes after differentiation of mouse myoblasts (C2C12) was evaluated by using the diameter measurement method. The method for measuring the diameter of myotubes was as follows: after 48 hours of treatment, the myotubes were fixed with a fixative (anhydrous ethanol: formaldehyde: glacial acetic acid (volume ratio)=20:2:1) for more than 1 h and stained. The staining method used in the experiment is hematoxylin-eosin staining, referred to as HE staining for short. Hematoxylin stain is alkaline and positively charged, and it can easily bind to the negatively charged and acidic deoxyribonucleic acid (DNA) in the cell nucleus through ionic bonds to stain it blue; eosin is an acidic dye that dissociates into negatively charged anions in water, and it can easily bind to the positively charged amino groups of proteins in the cytoplasm to stain it red. The stained cells were placed under a high-power microscope to take pictures (magnification: 200 times), and the diameter of myotube cells was statistically analyzed using image J software. The muscle atrophy reversal rate was calculated according to the following formula: Muscle atrophy reversal rate=(average value of myotubes in the treatment group-average value of myotubes in the model group)/(average value of myotubes in the control group-average value of myotubes in the model group)×100%

[2] = target: ActRIIB (Homo sapiens, UniProt Q13705); test: ActRIIB inhibitory activity, ADP-Glo assay kit; format: biochemical; settings: ATP 25 μM, substrate 0.1 mg/mL, ActRIIB 20.0 ng/μL
Description: The ATP and substrate concentrations recommended by the ADP-Glo™ assay kit were used, which were 25 μM and 0.1 mg/mL, respectively, and a series of isocratic final ActRIIB concentrations were set up, which were 0, 0.47, 0.94, 1.88, 3.75, 7.5, 15, 30, and 60 ng/μL, respectively. According to the […] values obtained in the experiment, an ActRIIB concentration titration curve was drawn. The ActRIIB concentrations corresponding to the ratio of the signal value to the background value (i.e., signal-to-background ratio, SBR) in the range of 5-10 times are suitable for screening compounds for inhibition of ActRIIB activity. From the ActRIIB concentration titration curve, the final ActRIIB concentrations corresponding to SB5 and SB10 were calculated to be 14.9 and 23.7 ng/μL, respectively. Finally, a final concentration of 20.0 ng/μL was selected as the experimental concentration for screening compounds for their inhibitory activity against ActRIIB. The inhibitory efficiency of 7-azaindole compounds on ActRIIB was detected at concentrations of 0.1, 1, 10, and 100 nM, respectively.

[3] = Mus musculus, read-out: Myotube atrophy reversal rate

ActRIIB, sequence (Q13705 19-512): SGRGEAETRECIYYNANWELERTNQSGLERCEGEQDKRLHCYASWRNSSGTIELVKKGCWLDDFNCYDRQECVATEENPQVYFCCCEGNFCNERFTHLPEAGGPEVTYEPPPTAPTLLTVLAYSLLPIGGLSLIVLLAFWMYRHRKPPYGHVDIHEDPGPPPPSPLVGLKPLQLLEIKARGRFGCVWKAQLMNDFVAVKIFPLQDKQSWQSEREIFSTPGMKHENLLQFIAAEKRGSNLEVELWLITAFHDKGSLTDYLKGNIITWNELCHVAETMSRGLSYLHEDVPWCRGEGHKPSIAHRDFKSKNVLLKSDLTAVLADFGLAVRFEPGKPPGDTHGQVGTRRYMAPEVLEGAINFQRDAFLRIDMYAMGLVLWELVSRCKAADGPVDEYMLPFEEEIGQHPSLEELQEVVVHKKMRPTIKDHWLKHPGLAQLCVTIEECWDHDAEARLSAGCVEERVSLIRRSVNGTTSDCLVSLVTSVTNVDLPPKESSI

| SMILES | inhibition at 2.5 µM [1, 3] [%] | IC50 [2] [nM] | inhibition at 5 µM [1, 3] [%] | inhibition at 10 µM [1, 3] [%] | inhibition at 1.25 µM ([1]; Mus musculus, 1.25 μM, read-out: Myotube atrophy reversal rate) [%] | Myotube atrophy reversal rate ([1]; 1.25 μM) [%] |
| --- | --- | --- | --- | --- | --- | --- |
| CN1CCN(c2ccc(-c3cnc4[nH]cc(-c5cn[nH]c5)c4c3)cc2)CC1 [Compound 1, 3-(1H-pyrazol-4-yl)-5-[4-(4-methylpiperazin-1-yl)phenyl]-1H-pyrrolo[2,3-b]pyridine] | 63.5 | 20.4 |  |  |  |  |
| Cc1n[nH]cc1-c1c[nH]c2ncc(-c3ccc(N4CCN(C)CC4)cc3)cc12 [Compound 4, 3-(3-methyl-1H-pyrazol-4-yl)-5-[4-(4-methylpiperazin-1-yl)phenyl]-1H-pyrrolo[2,3-b]pyridine] |  | 58.6 | 63.6 |  |  |  |
| Cc1n[nH]c(C)c1-c1c[nH]c2ncc(-c3ccc(N4CCN(C)CC4)cc3)cc12 [Compound 5, 3-(3,5-dimethyl-1H-pyrazol-4-yl)-5-[4-(4-methylpiperazin-1-yl)phenyl]-1H-pyrrolo[2,3-b]pyridine] |  | 1.2 | 79.5 |  |  |  |
| CN1CCN(c2ccc(-c3cnc4[nH]cc(-c5ccnn5C)c4c3)cc2)CC1 [Compound 6, 5-[4-(4-methylpiperazin-1-yl)phenyl]-3-(2-methylpyrazol-3-yl)-1H-pyrrolo[2,3-b]pyridine] | 45.9 | 1.4 | 79.1 | 99.8 |  |  |
| CCn1nccc1-c1c[nH]c2ncc(-c3ccc(N4CCN(C)CC4)cc3)cc12 [Compound 7, 3-(2-ethylpyrazol-3-yl)-5-[4-(4-methylpiperazin-1-yl)phenyl]-1H-pyrrolo[2,3-b]pyridine] |  | 4.4 |  | 77.1 |  |  |
| CC(C)n1nccc1-c1c[nH]c2ncc(-c3ccc(N4CCN(C)CC4)cc3)cc12 [Compound 8, 5-[4-(4-methylpiperazin-1-yl)phenyl]-3-[2-(prop-2-yl)pyrazol-3-yl]-1H-pyrrolo[2,3-b]pyridine] |  | 2.6 | 62.2 |  |  |  |
| CN1CCN(c2ccc(-c3cnc4[nH]cc(-c5cnn(C)c5)c4c3)cc2)CC1 [Compound 9, 5-[4-(4-methylpiperazin-1-yl)phenyl]-3-(1-methylpyrazol-4-yl)-1H-pyrrolo[2,3-b]pyridine] | 61.1 | 70.8 |  |  |  |  |
| Cn1nccc1-c1c[nH]c2ncc(-c3ccc(OCCN4CCOCC4)cc3)cc12 [Compound 12, 3-(2-methylpyrazol-3-yl)-5-(4-{[2-(1,4-oxazacyclohexan-4-yl)ethyl]oxy}phenyl)-1H-pyrrolo[2,3-b]pyridine] |  |  | 73.8 |  |  |  |
| Cn1nccc1-c1c[nH]c2ncc(-c3ccc(OCCN4CCCCC4)cc3)cc12 [Compound 13, 5-(4-{[2-(hexahydropyridin-1-yl)ethyl]oxy}phenyl)-3-(2-methylpyrazol-3-yl)-1H-pyrrolo[2,3-b]pyridine] |  | 12.6 |  | 86.2 |  |  |
| CN1CCN(C(=O)c2ccc(-c3cnc4[nH]cc(-c5ccnn5C)c4c3)cc2)CC1 [Compound 14, (4-methylpiperazin-1-yl) {4-[3-(2-methylpyrazol-3-yl)-1H-pyrrolo[2,3-b]pyridin-5-yl]phenyl}ketone] |  |  |  | 57 |  |  |
| CN1CCN(Cc2ccc(-c3cnc4[nH]cc(-c5ccnn5C)c4c3)cc2)CC1 [Compound 15, 5-{4-[(4-methylpiperazin-1-yl)methyl]phenyl}-3-(2-methylpyrazol-3-yl)-1H-pyrrolo[2,3-b]pyridine] | 47.5 |  | 99.1 | 109 |  |  |
| Cn1nccc1-c1c[nH]c2ncc(-c3ccc(N4CCOCC4)cc3)cc12 [Compound 16, 3-(2-methylpyrazol-3-yl)-5-[4-(1,4-oxazacyclohexan-4-yl)phenyl]-1H-pyrrolo[2,3-b]pyridine] |  | 1.86 | 78 |  |  |  |
| Cn1nccc1-c1c[nH]c2ncc(-c3ccc(N4CCNCC4)cc3)cc12 [Compound 17, 3-(2-methylpyrazol-3-yl)-5-[4-(piperazin-1-yl)phenyl]-1H-pyrrolo[2,3-b]pyridine] | 65 | 3.61 | 97.7 |  | 39.9 |  |
| CCN(CC)CCOc1ccc(-c2cnc3[nH]cc(-c4ccnn4C)c3c2)cc1 [Compound 18, 5-(4-{[2-(diethylamino)ethyl]oxy}phenyl)-3-(2-methylpyrazol-3-yl)-1H-pyrrolo[2,3-b]pyridine] |  | 78.9 |  | 84.5 |  |  |
| Cc1noc(C)c1-c1c[nH]c2ncc(-c3ccc(N4CCN(C)CC4)cc3)cc12 [Compound 19, 3-(3,5-dimethylisoxazol-4-yl)-5-[4-(4-methylpiperazin-1-yl)phenyl]-1H-pyrrolo[2,3-b]pyridine] |  | 24.2 | 69.4 |  |  |  |
| c1cc(-c2c[nH]c3ncc(-c4ccc(OCCN5CCOCC5)cc4)cc23)n[nH]1 [Compound 20, 3-(1H-pyrazol-3-yl)-5-(4-[[2-(1,4-oxazacyclohexan-4-yl)ethyl]oxy]phenyl)-1H-pyrrolo[2,3-b]pyridine] |  |  |  |  |  | 54.04 |
| CN1CCN(c2ccc(-c3cnc4[nH]cc(-c5cccnc5)c4c3)cc2)CC1 [Compound 22, 5-[4-(4-methylpiperazin-1-yl)phenyl]-3-(pyridin-3-yl)-1H-pyrrolo[2,3-b]pyridine] |  | 87.3 | 75.4 |  |  |  |
| CN1CCN(c2ccc(-c3cnc4[nH]cc(-c5cncnc5)c4c3)cc2)CC1 [Compound 23, 5-[4-(4-methylpiperazin-1-yl)phenyl]-3-(pyrimidin-5-yl)-1H-pyrrolo[2,3-b]pyridine] |  | 4.8 | 97.9 |  |  |  |
| CN1CCN(c2ccc(-c3cnc4[nH]cc(-c5ccncc5)c4c3)cc2)CC1 [Compound 24, 5-[4-(4-methylpiperazin-1-yl)phenyl]-3-(pyridin-4-yl)-1H-pyrrolo[2,3-b]pyridine] |  | 59.3 | 76.7 |  |  |  |
| CN1CCN(c2ccc(-c3cnc4[nH]cc(-c5ccccc5)c4c3)cc2)CC1 [Compound 25, 5-[4-(4-methylpiperazin-1-yl)phenyl]-3-phenyl-1H-pyrrolo[2,3-b]pyridine] |  | 1.2 | 77.1 |  |  |  |
